Reference: US20260355328A1, “A complex comprising a cargo and a targeting moiety binding intelectin-1” (Stichting Radboud universitair medisch centrum, priority 2022, published 2026)
Residues, ends and D or L forms follow the SMILES beside them. *: point of attachment. DOTA = O=C(O)CN1CCN(CC(=O)O)CCN(CC(=O)*)CCN(CC(=O)O)CC1

Experiments:
[1] = Biodistribution of full-length lactoferrin, lactoferricin and hLF-6 in LPS-challenged mice (IVIS); type: in vivo; conditions: fluorescent label, i.v., 2 h
Procedure: Lactoferrin and lactoferricin are cloned in an expression plasmid containing the C-terminal Sortase-sequence protein-LPETG-HHHHHH. LPETGHHHHHH is SEQ ID NO: 98. Next, the protein is expressed overnight in E. coli and purified from sonicated bacterial cell lysates by Ni-NTA beads using 400 mM imidazole to elute the proteins. After overnight dialysis, full-length lactoferrin and hLF-6 are labelled by means of a Sortase exchange reaction on the C-terminus with a fluorescent dye (Alexa647 or Cy5.5) for 2 h at 4 °C using a fluorescently labelled donor peptide (formula:biotin-GSSG-LPETG-label or biotin-GSSG-LPETG-PEG40k-label) as substrate GSSGLPETG is SEQ ID NO: 99. Excess donor peptide is removed by means of streptavidin binding of the biotin tag on the N-terminus of the donor peptide. Next, the purified labelled protein/peptide is injected into LPS-challenged mice via intravenous injection in the tail vein. Mice are sacrificed after 2 h, and organs harvested for imaging by IVIS. Biodistribution is quantified for each organ, and relative distribution is shown.

[2] = Biodistribution of 111In-DOTA-labelled hLF variants after intravenous injection; type: in vivo, C57BI/6 mice; conditions: i.v., 4 hours
Procedure: Female and male 10-12-weeks-old C57BI/6 mice (Charles River) were injected via the tail vein with 50 μl of 200 μM 111 In-DOTA-labelled hLF peptides. […] Organs were collected 4 hours after injection, and radioactivity was measured in a gamma-counter. The percentage injected dose per gram of tissue (% ID/gram) was determined for each tissue and ratios between organs were calculated.

[3] = test system: mouse glomerular endothelial cells (mGEnC); assay: Uptake of fluorescein-labelled peptides by mGEnC (flow cytometry); type: cell-based; conditions: different concentrations, 20 minutes at 37 °C, FIG. 1A
Procedure: (§1) Conditionally immortalized mouse glomerular endothelial cells (mGEnC) were cultured as previously described (Rops et al. Kidney Int. 2004; 66 (6): 2193-201). HeLa cells were employed as a frequently used model cell line and were cultured in DMEM/F12 medium containing 10% fetal calf serum (FCS). For studying uptake, cells were incubated in their respective medium with 10% FCS containing fluorescein-labelled peptides at the indicated concentrations for 20 minutes at 37 °C. In some cases, cells were activated for 16 hours with 10 ng/ml mouse TNFα (Sigma), or co-incubated with Alexa Fluor 633-labeled transferrin (Invitrogen Molecular Probes). Subsequently, cells were washed with PBS and analysed using confocal laser-scanning microscopy on a TCS SP5 confocal microscope (Leica Microsystems), or detached by trypsin/EDTA and analysed on a FACSCalibur Flow cytometer (BD Biosciences) by measuring 20,000 cells.

[4] = test system: HeLa cells; assay: Uptake of fluorescein-labelled peptides by HeLa cells (flow cytometry); type: cell-based, human; conditions: FIG. 1B
Procedure: as §1

[5] = test system: heparan sulphate on mGEnC; assay: Peptide uptake by mGEnC after removal of heparan sulphate (heparinases); type: cell-based, mouse; conditions: 5 μM, FIG. 1D
Procedure: (D) Digestion of heparan sulphate from the cell surface has a limited effect on the uptake of lactoferrin-derived peptides (5 μM). Percentage of uptake for heparan sulphate-cleaved compared to undigested cells is shown.
as §1
In order to further substantiate that uptake of hLF occurred by a mechanism different of the one typically observed for CPPs, we addressed the role of heparan sulphate proteoglycans (HSPGs).

[6] = test system: mGEnC treated with TNFα; assay: Uptake by mGEnC after activation with TNFα; type: cell-based; conditions: 10 ng/ml mouse TNFα 16 hours
Procedure: as §1
(§2) Conditionally immortalized mouse glomerular endothelial cells (mGEnC) were cultured as previously described (Rops et al. Kidney Int. 2004; 66 (6): 2193-201). Cells were incubated in their respective medium with 10% FCS containing fluorescein-labelled peptides at 5 μM for 20 minutes at 37 °C. In some cases, cells were activated for 16 hours with 10 ng/ml mouse TNFα (Sigma), or co-incubated with 100 μg/ml Alexa Fluor 633-labeled transferrin (Invitrogen Molecular Probes). Pre-treatment with ITLN-1 or control siPool siRNA (siTools Biotech) was performed according to the manufacturer's protocol. Subsequently, cells were detached with trypsin/EDTA and analysed by flow cytometry on a FACSCalibur Flow cytometer (BD Biosciences). For immunostaining, cells or 5-μm cryosections of mouse kidney were fixed for 10 minutes with 4% paraformaldehyde, and in the indicated cases permeabilized with 0.3% Triton X-100 in PBS. Subsequently, cells and cryosections were stained for 1 hour with anti-intelectin-1 (R&D Systems) or anti-LRP-1 (Abcam) antibodies, and after washing incubated for 1 hour with the appropriate Alexa Fluor-labelled secondary antibody (Invitrogen Molecular Probes). Cells and cryosections were analyzed by confocal laser-Scanning microscopy was performed using a TCS SP5 confocal microscope (Leica Microsystems).

[7] = target: T1, ITLN-1 (Mus musculus, UniProt O88310); assay: Uptake by mGEnC after downregulation of ITLN-1 with siRNA; type: cell-based; conditions: peptides at 5 μM, FIG. 2E
T1 construct: ITLN-1 siRNA versus control siRNA
Procedure: as §2

[8] = test system: mGEnC; assay: Uptake in multiple cell lines (Table 2): mGEnC; type: cell-based; conditions: fluorescein-labeled peptide, confocal microscopy, mGEnC (mouse)
Procedure: as §1
as §2, with “Subsequently, cells and cryosections were stained for 1 hour with anti-intelectin-1 (R&D Systems) or anti-LRP-1 (Abcam) antibodies, and after washing incubated for 1 hour with the appropriate Alexa Fluor-labelled secondary antibody (Invitrogen Molecular Probes).” left out

[9] = test system: hGEnC; assay: Uptake in multiple cell lines (Table 2): hGEnC; type: cell-based; conditions: fluorescein-labeled peptide, confocal microscopy, hGEnC (human)
[10] = test system: EOMA; assay: Uptake in multiple cell lines (Table 2): EOMA; type: cell-based; conditions: fluorescein-labeled peptide, confocal microscopy, EOMA (mouse)
[11] = test system: HUVEC; assay: Uptake in multiple cell lines (Table 2): HUVEC; type: cell-based; conditions: fluorescein-labeled peptide, confocal microscopy, HUVEC (human)
[12] = test system: Podocytes; assay: Uptake in multiple cell lines (Table 2): Podocytes; type: cell-based; conditions: fluorescein-labeled peptide, confocal microscopy, Podocytes (mouse)
Procedure: as §1
as §2, with “Subsequently, cells and cryosections were stained for 1 hour with anti-intelectin-1 (R&D Systems) or anti-LRP-1 (Abcam) antibodies, and after washing incubated for 1 hour with the appropriate Alexa Fluor-labelled secondary antibody (Invitrogen Molecular Probes).” left out

[13] = test system: HeLa; assay: Uptake in multiple cell lines (Table 2): HeLa; type: cell-based; conditions: fluorescein-labeled peptide, confocal microscopy, HeLa (human)
Procedure: as §1
as §2, with “Subsequently, cells and cryosections were stained for 1 hour with anti-intelectin-1 (R&D Systems) or anti-LRP-1 (Abcam) antibodies, and after washing incubated for 1 hour with the appropriate Alexa Fluor-labelled secondary antibody (Invitrogen Molecular Probes).” left out

[14] = Biodistribution of Cy5.5-hLF in LPS-induced inflammation mouse model; type: in vivo, C57BI/6 mice; conditions: for organ with highest signal: LPS-treated and non-treated mice; for localization in the glomeruli: kidney of LPS-treated mice
Procedure: At the start, 8- to 10-week-old C57BI/6 mice (Charles River) received an intraperitoneal injection with either 100 μl of 2 mg/kg LPS in 5% glucose solution, or only 5% glucose solution. After 24 hours, mice were injected with 50 μl of 200 μM Cy5.5-labelled peptide. Assuming a blood volume of 1.2 ml this would theoretically result in a concentration of ~8.5 μM in the circulation. After 4 hours, organs were perfused with phosphate buffer, followed by 4% PFA. Organs were removed and peptide distribution was analysed using the In Vivo Imaging System (IVIS; Perkin Elmer). Organs were then fixed by overnight incubation in 4% PFA, followed by overnight incubation in 30% sucrose. Subsequently, organs were frozen for analysis by confocal laser-Scanning microscopy using a TCS SP5 confocal microscope (Leica Microsystems). Glomerular and tubular regions were selected in microscopical pictures from which the mean fluorescence intensity was determined by ImageJ software.

T1 sequence (O88310 19-298): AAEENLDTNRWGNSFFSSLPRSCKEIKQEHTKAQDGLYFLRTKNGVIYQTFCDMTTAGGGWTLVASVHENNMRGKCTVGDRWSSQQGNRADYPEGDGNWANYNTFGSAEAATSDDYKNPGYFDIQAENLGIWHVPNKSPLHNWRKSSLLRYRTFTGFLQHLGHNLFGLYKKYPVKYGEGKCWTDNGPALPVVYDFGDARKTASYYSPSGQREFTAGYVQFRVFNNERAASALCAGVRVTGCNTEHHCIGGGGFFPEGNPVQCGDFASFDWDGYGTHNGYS

Compound | uptake in HeLa cells [4] | effect of TNFα treatment on uptake [6] | uptake after ITLN-1 siRNA compared to control siRNA [7] | Uptake (Table 2) [8] | Uptake (Table 2) [9] | Uptake (Table 2) [10] | Uptake (Table 2) [11] | Uptake (Table 2) [12] | Uptake (Table 2) [13] | further results
RKVRGPPVSCIKRDS [hLF-6] | – | – | – | – | – | – | – | – | – | accumulation in the kidney compared to lactoferrin and lactoferricin [1]: significantly greater accumulation in the kidney
CC(C)[C@H](NC(=O)[C@H](CCCCN)NC(=O)[C@H](CCCNC(=N)N)NC(=O)CN1CCN(CC(=O)O)CCN(CC(=O)O)CCN(CC(=O)O)CC1)C(=O)N[C@@H](CCCNC(=N)N)C(=O)NCC(=O)N1CCC[C@H]1C(=O)N1CCC[C@H]1C(N)=O [^111In-DOTA-hLF-7, ^111In-DOTA-RKVRGPP-NH2, metal not drawn] ({DOTA}-RKVRGPP-NH2) | – | – | – | – | – | – | – | – | – | kidney/liver ratio (in words) [2]: still increased; localization to the kidney ([2]; FIG. 5): reduced distribution to the kidney; localization to the liver and spleen ([2]; FIG. 5): reduced distribution to the liver and spleen
KCLRWQNEMRKVGGPPLSCIKR [mLF, mouse variant of hLF] | only a minimal uptake and not | increased uptake | reduced uptake | High | High | High | High | High | Low | uptake in mGEnC [3]: uptake occurred similarly to hLF; decrease in uptake after removal of heparan sulphate [5]: ~ 20%
Cy5.5-KCFQWQRNMRKVRGPPVSCIKR-NH2 ({Cy5.5}-KCFQWQRNMRKVRGPPVSCIKR-NH2; cysteine pairing not given here) [Cy5.5-hLF] | – | – | – | – | – | – | – | – | – | organ with highest signal ([14]; IVIS): predominant distribution in kidney and liver; organ with highest signal ([14]; IVIS, listed as Cy5.5-labeled hLF): highest signal for the peptide was present in the kidneys, followed by the liver; biodistribution to the kidney with LPS-induced inflammation ([14]; IVIS, i.v., 4 hours, LPS-treated mice, FIG. 4A): increase biodistribution to the kidney; urinary excretion (urine colour) ([14]; all injected mice): Urine was coloured by excreted Cy5.5-labelled peptide in all mice; fluorescence in liver, lung and spleen ([14]; confocal microscopy, FIG. 4B): much lower fluorescence; localization to the tubules, LPS-treated versus untreated ([14]; confocal microscopy, FIG. 4B): similar; localization in the glomeruli ([14]; confocal microscopy, FIG. 4B): in glomeruli only in LPS-treated mice; localization in the glomeruli ([14]; confocal microscopy, FIG. 4B, listed as Cy5.5-labeled hLF): clearly pronounced; detection in the liver ([14]; histology of cryosections): singular cells appeared weakly positive; detection in the spleen ([14]; histology of cryosections): could hardly be detected
transferrin: Alexa Fluor 633-labeled transferrin, marker for clathrin-mediated endocytosis [reference compound] | – | not significantly affected | not affected | – | – | – | – | – | – | –
CC[C@H](C)[C@H](NC(=O)[C@H](CCCCN)NC(=O)[C@@H](NC(=O)[C@H](CCC(N)=O)NC(=O)[C@@H](N)CCCNC(=N)N)[C@@H](C)CC)C(=O)N[C@@H](Cc1c[nH]c2ccccc12)C(=O)N[C@@H](Cc1ccccc1)C(=O)N[C@@H](CCC(N)=O)C(=O)N[C@@H](CC(N)=O)C(=O)N[C@@H](CCCNC(=N)N)C(=O)N[C@@H](CCCNC(=N)N)C(=O)N[C@@H](CCSC)C(=O)N[C@@H](CCCCN)C(=O)N[C@@H](Cc1c[nH]c2ccccc12)C(=O)N[C@@H](CCCCN)C(=O)N[C@@H](CCCCN)C(N)=O [penetratin, reference compound] | show uptake | – | not affected | Low | Low | Low | High | High | High | uptake after TNFα treatment by confocal microscopy [6]: barely detectable; increase of uptake after TNFα treatment ([6]; 5 μM, FIG. 1E): 50-100%
